In patent US12290596B2, “Compositions and methods for the treatment of opioid overdose” (priority 2021, dated 2025):

Experiments:
[1] = Two-period crossover pharmacokinetics of nalmefene 3 mg IN vs 1.0 mg IM (Example 12); settings: human, plasma; for concentration at 0.5 h: 0.500 h
[2] = Example 14 safety: adverse events; settings: Part 2
[3] = intramuscular, 1 mg, Mean plasma concentration, Treatment B 1.0 mg IM
[4] = intramuscular, 1 mg, Median plasma concentration, Treatment B 1.0 mg IM
[5] = other: intranasal, 3 mg, Mean plasma concentration, Treatment A 3.0 mg IN
[6] = other: intranasal, 3 mg, Median plasma concentration, Treatment A 3.0 mg IN

C=C1CC[C@@]2(O)[C@H]3Cc4ccc(O)c5c4[C@@]2(CCN3CC2CC2)[C@H]1O5 [Nalmefene, 17-cyclopropylmethyl-4,5α-epoxy-6-methylenemorphinan-3,14-diol]
concentration at 3 h [1, 3]: 0.896 ng/mL | concentration at 4 h [1, 3]: 0.824 ng/mL | concentration at 6 h [1, 3]: 0.688 ng/mL | concentration at 8 h [1, 3]: 0.67 ng/mL | concentration at 36 h [1, 3]: 0.0968 ng/mL | concentration at 12 h [1, 3]: 0.538 ng/mL | concentration at 18 h [1, 3]: 0.36 ng/mL | concentration at 24 h [1, 3]: 0.223 ng/mL | concentration at 48 h [1, 3]: 0.0491 ng/mL | concentration at 0 h [1, 4]: 0 ng/mL | concentration at 0.5 h [1, 4]: 0.945 ng/mL | concentration at 1 h [1, 4]: 0.829 ng/mL | concentration at 2 h [1, 4]: 0.858 ng/mL | concentration at 3 h [1, 4]: 0.818 ng/mL | concentration at 4 h [1, 4]: 0.77 ng/mL | concentration at 6 h [1, 4]: 0.673 ng/mL | concentration at 8 h [1, 4]: 0.629 ng/mL | concentration at 36 h [1, 4]: 0.0915 ng/mL | concentration at 12 h [1, 4]: 0.516 ng/mL | concentration at 18 h [1, 4]: 0.341 ng/mL | concentration at 24 h [1, 4]: 0.203 ng/mL | concentration at 48 h [1, 4]: 0.0436 ng/mL | half-life ([1]; other: intranasal (nasal spray), 3 mg, Plasma half-life, 3 mg IN): ~11 h | AUC(0-t) ([1]; other: intranasal, 3 mg, AUC0-5 min, GeoMean, Treatment A 3.0 mg IN (Test)): 0.06 ng·h/mL | AUC(0-t) ([1]; other: intranasal, 3 mg, AUC0-5 min, Treatment A: 3.0 mg nalmefene hydrochloride IN, Geo. Mean, n 66): 0.0599 ng·h/mL | AUC(0-t) ([1]; other: intranasal, 3 mg, AUC0-5 min, Treatment A: 3.0 mg nalmefene hydrochloride IN, Median, n 66): 0.0546 ng·h/mL | AUC(0-t) ([1]; other: intranasal, 3 mg, AUC0-10 min, GeoMean, Treatment A 3.0 mg IN (Test)): 0.514 ng·h/mL | AUC(0-t) ([1]; other: intranasal, 3 mg, AUC0-10 min, Treatment A: 3.0 mg nalmefene hydrochloride IN, Geo. Mean, n 66): 0.523 ng·h/mL | AUC(0-t) ([1]; other: intranasal, 3 mg, AUC0-10 min, Treatment A: 3.0 mg nalmefene hydrochloride IN, Mean, n 66): 0.787 ng·h/mL | AUC(0-t) ([1]; other: intranasal, 3 mg, AUC0-10 min, Treatment A: 3.0 mg nalmefene hydrochloride IN, Median, n 66): 0.537 ng·h/mL | AUC(0-t) ([1]; other: intranasal, 3 mg, AUC0-15 min, GeoMean, Treatment A 3.0 mg IN (Test)): 1.19 ng·h/mL | AUC(0-t) ([1]; other: intranasal, 3 mg, AUC0-15 min, Treatment A: 3.0 mg nalmefene hydrochloride IN, Geo. Mean, n 66): 1.2 ng·h/mL | AUC(0-t) ([1]; other: intranasal, 3 mg, AUC0-15 min, Treatment A: 3.0 mg nalmefene hydrochloride IN, Mean, n 66): 1.6 ng·h/mL | AUC(0-t) ([1]; other: intranasal, 3 mg, AUC0-15 min, Treatment A: 3.0 mg nalmefene hydrochloride IN, Median, n 66): 1.19 ng·h/mL | AUC(0-t) ([1]; other: intranasal, 3 mg, AUC0-20 min, GeoMean, Treatment A 3.0 mg IN (Test)): 1.87 ng·h/mL | AUC(0-t) ([1]; other: intranasal, 3 mg, AUC0-20 min, Treatment A: 3.0 mg nalmefene hydrochloride IN, Geo. Mean, n 66): 1.89 ng·h/mL | AUC(0-t) ([1]; other: intranasal, 3 mg, AUC0-20 min, Treatment A: 3.0 mg nalmefene hydrochloride IN, Mean, n 66): 2.34 ng·h/mL | AUC(0-t) ([1]; other: intranasal, 3 mg, AUC0-20 min, Treatment A: 3.0 mg nalmefene hydrochloride IN, Median, n 66): 1.85 ng·h/mL | AUC(0-t) ([1]; other: intranasal, 3 mg, AUC0-30 min, GeoMean, Treatment A 3.0 mg IN (Test)): 3.04 ng·h/mL | AUC(0-t) ([1]; other: intranasal, 3 mg, AUC0-30 min, Treatment A: 3.0 mg nalmefene hydrochloride IN, Geo. Mean, n 66): 3.07 ng·h/mL | AUC(0-t) ([1]; other: intranasal, 3 mg, AUC0-30 min, Treatment A: 3.0 mg nalmefene hydrochloride IN, Mean, n 66): 3.55 ng·h/mL | AUC(0-t) ([1]; other: intranasal, 3 mg, AUC0-30 min, Treatment A: 3.0 mg nalmefene hydrochloride IN, Median, n 66): 3.04 ng·h/mL | AUC(0-t) ([1]; other: intranasal, 3 mg, AUC0-[…], Treatment A: 3.0 mg nalmefene hydrochloride IN, Mean, n 66): 0.0193 ng·h/mL | AUC(0-t) ([1]; other: intranasal, 3 mg, AUCLast, GeoMean, Treatment A 3.0 mg IN (Test)): 38.9 ng·h/mL | AUC(0-inf) ([1]; other: intranasal, 3 mg, AUCinf, GeoMean, Treatment A 3.0 mg IN (Test)): 40.3 ng·h/mL | Cmax ([1]; other: intranasal, 3 mg, Cmax, GeoMean, Treatment A 3.0 mg IN (Test)): 10.3 ng/mL | concentration at 0 h [1, 5]: 0.00146 ng/mL | concentration at 0.5 h [1, 5]: 6.25 ng/mL | concentration at 1 h [1, 5]: 4.64 ng/mL | concentration at 2 h [1, 5]: 4.03 ng/mL | concentration at 3 h [1, 5]: 3.17 ng/mL | concentration at 4 h [1, 5]: 2.52 ng/mL | concentration at 6 h [1, 5]: 1.69 ng/mL | concentration at 8 h [1, 5]: 1.23 ng/mL | concentration at 36 h [1, 5]: 0.171 ng/mL | concentration at 12 h [1, 5]: 0.87 ng/mL | concentration at 18 h [1, 5]: 0.529 ng/mL | concentration at 24 h [1, 5]: 0.366 ng/mL | concentration at 48 h [1, 5]: 0.0875 ng/mL | concentration at 0 h [1, 6]: 0 ng/mL | concentration at 0.5 h [1, 6]: 5.86 ng/mL | concentration at 1 h [1, 6]: 4.68 ng/mL | concentration at 2 h [1, 6]: 3.99 ng/mL | concentration at 3 h [1, 6]: 3.13 ng/mL | concentration at 4 h [1, 6]: 2.49 ng/mL | concentration at 6 h [1, 6]: 1.65 ng/mL | concentration at 8 h [1, 6]: 1.18 ng/mL | concentration at 36 h [1, 6]: 0.165 ng/mL | concentration at 12 h [1, 6]: 0.832 ng/mL | concentration at 18 h [1, 6]: 0.518 ng/mL | concentration at 24 h [1, 6]: 0.341 ng/mL | concentration at 48 h [1, 6]: 0.0843 ng/mL | Number of TEAEs [2]: 172 | Subjects reporting Grade 1 severity TEAEs [2]: 68.9% | Subjects reporting Grade 2 severity TEAEs [2]: 23.0% | Subjects reporting TEAEs [2]: 91.8% | Subjects reporting headache [2]: 59.0% | Subjects who discontinued the study drug due to an AE [2]: 6.6%
